From US6737383B1, “Herbicidal oxadiazolidines” (priority 1999, dated 2004)

Key:
corn = experiment: Test B pre/postemergence corn; format: in vivo, Zea mays
Method in brief: (§1)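 Test chemicals in a non-phytotoxic solvent mixture with surfactant were sprayed preemergence onto planted seeds and postemergence onto plants 2 to 18 cm tall (1- to 4-leaf stage). After twelve to sixteen days in a greenhouse, injury was visually rated against untreated controls from 0 (no effect) to 10 (complete control).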

rape = experiment: Test B pre/postemergence rape; format: in vivo, Brassica napus
Method in brief: as §1

blackgrass = experiment: Test B pre/postemergence blackgrass; format: in vivo, Alopecurus myosuroides
Method in brief: as §1

crabgrass = experiment: Test B pre/postemergence crabgrass; format: in vivo, Digitaria sanguinalis
Method in brief: as §1

morningglory = experiment: Test B pre/postemergence morningglory; format: in vivo, Ipomoea hederacea
Method in brief: as §1

purple nutsedge = experiment: Test B pre/postemergence purple nutsedge; format: in vivo, Cyperus rotundus
Method in brief: as §1

sugar beet = experiment: Test B pre/postemergence sugar beet; format: in vivo, Beta vulgaris
Method in brief: as §1

pigweed = experiment: Test B pre/postemergence pigweed; format: in vivo, Amaranthus retroflexus
Method in brief: as §1

duck salad = experiment: Test B flood test duck salad; format: in vivo, Heteranthera limosa
Method in brief: (§2)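 Plants were grown to the 2-leaf stage before treatment with test chemical, then held in a greenhouse for twelve to sixteen days. Injury was visually rated against untreated controls on a 0–10 scale, where 0 is no effect and 10 is complete control.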

soybean = experiment: Test B pre/postemergence soybean; format: in vivo, Glycine max
Method in brief: as §1

rice = experiment: Test B flood test rice; format: in vivo, Oryza sativa
Method in brief: as §2

velvetleaf = experiment: Test B pre/postemergence velvetleaf; format: in vivo, Abutilon theophrasti
Method in brief: as §1

giant foxtail = experiment: Test B pre/postemergence giant foxtail; format: in vivo, Setaria faberii
Method in brief: as §1

smallflower flatsedge = experiment: Test B flood test smallflower flatsedge; format: in vivo, Cyperus difformis
Method in brief: as §2

wheat = experiment: Test B pre/postemergence wheat; format: in vivo, Triticum aestivum
Method in brief: as §1

cocklebur = experiment: Test B pre/postemergence cocklebur; format: in vivo, Xanthium strumarium
Method in brief: as §1

[1] = Preemergence, Rate 62 g/ha, scale of 0 to 10 where 0 is no effect and 10 is complete control
[2] = Preemergence, Rate 250 g/ha, scale of 0 to 10 where 0 is no effect and 10 is complete control
[3] = Preemergence, Rate 500 g/ha, scale of 0 to 10 where 0 is no effect and 10 is complete control
[4] = Rate 62 g/ha, Postemergence, scale of 0 to 10 where 0 is no effect and 10 is complete control
[5] = Rate 125 g/ha, Preemergence, scale of 0 to 10 where 0 is no effect and 10 is complete control
[6] = Rate 500 g/ha, Postemergence, scale 0 to 10, 0 no effect, 10 complete control
[7] = Rate 125 g/ha, Postemergence, scale 0 to 10
[8] = Rate 62 g/ha, headed Pre-emergence (flood test species), scale 0 to 10 (0 no effect, 10 complete control)
[9] = Rate 125 g/ha, Pre-emergence, flood test species, scale 0 to 10 where 0 is no effect and 10 is complete control
[10] = Rate 250 g/ha, Pre-emergence, flood-test species, scale 0 to 10, 0 is no effect, 10 is complete control
[11] = Rate 500 g/ha, Pre-emergence, flood test species, scale 0 to 10 (0 no effect, 10 complete control)

SMILES: CC(C)N(C(=O)n1oc(=O)n(C2CC2)c1=O)c1ccc(F)cc1 [Compound 242]
- Corn plant response rating (corn; [1]): 0
- Corn plant response rating (corn; [2]): 6
- Plant response rating, Corn (corn; [3]): 9
- Corn plant response rating (corn; [4]): 0
- Corn plant response rating (corn; [5]): 0
- Plant response rating (0 to 10; 0 is no effect, 10 is complete control), Corn (corn; Rate 250 g/ha, Postemergence): 0
- Corn plant response rating (corn; [6]): 6
- Rape plant response rating (rape; [1]): 0
- Rape plant response rating (rape; [2]): 10
- Plant response rating, Rape (rape; [3]): 10
- Rape plant response rating (rape; [4]): 0
- Rape plant response rating (rape; [5]): 6
- Plant response rating (0 to 10; 0 is no effect, 10 is complete control), Rape (rape; Rate 250 g/ha, Postemergence): 4
- Rape plant response rating (rape; [6]): 8
- Blackgrass plant response rating (blackgrass; [1]): 9
- Blackgrass plant response rating (blackgrass; [2]): 10
- Plant response rating, Blackgrass (blackgrass; [3]): 10
- Blackgrass plant response rating (blackgrass; [4]): 8
- Blackgrass plant response rating (blackgrass; [7]): 9
- Blackgrass plant response rating (blackgrass; [5]): 10
- Plant response rating (0 to 10; 0 is no effect, 10 is complete control), Blackgrass (blackgrass; Rate 250 g/ha, Postemergence): 9
- Blackgrass plant response rating (blackgrass; [6]): 9
- Crabgrass plant response rating (crabgrass; [1]): 9
- Crabgrass plant response rating (crabgrass; [2]): 10
- Plant response rating, Crabgrass (crabgrass; [3]): 10
- Crabgrass plant response rating (crabgrass; [4]): 8
- Crabgrass plant response rating (crabgrass; [5]): 10
- Plant response rating (0 to 10; 0 is no effect, 10 is complete control), Crabgrass (crabgrass; Rate 250 g/ha, Postemergence): 9
- Crabgrass plant response rating (crabgrass; [6]): 9
- Morningglory plant response rating (morningglory; [1]): 2
- Morningglory plant response rating (morningglory; [2]): 5
- Plant response rating, Morningglory (morningglory; [3]): 10
- Morningglory plant response rating (morningglory; [4]): 0
- Morningglory plant response rating (morningglory; [5]): 2
- Plant response rating (0 to 10; 0 is no effect, 10 is complete control), Morningglory (morningglory; Rate 250 g/ha, Postemergence): 7
- Morningglory plant response rating (morningglory; [6]): 8
- Nutsedge plant response rating (purple nutsedge; [1]): 10
- Nutsedge plant response rating (purple nutsedge; [2]): 10
- Plant response rating, Nutsedge (purple nutsedge; [3]): 10
- Nutsedge plant response rating (purple nutsedge; [4]): 0
- Nutsedge plant response rating (purple nutsedge; [5]): 10
- Nutsedge plant response rating (purple nutsedge; [6]): 5
- Sugarbeets plant response rating (sugar beet; [1]): 3
- Plant response rating, Sugarbeets (sugar beet; [3]): 8
- Sugarbeets plant response rating (sugar beet; [4]): 0
- Sugarbeets plant response rating (sugar beet; [5]): 7
- Sugarbeets plant response rating (sugar beet; [6]): 8
- Redroot pigweed plant response rating (pigweed; [1]): 9
- Redroot pigweed plant response rating (pigweed; [2]): 10
- Plant response rating, Redroot pigweed (pigweed; [3]): 10
- Redroot pigweed plant response rating (pigweed; [4]): 0
- Redroot pigweed plant response rating (pigweed; [5]): 10
- Plant response rating (0 to 10; 0 is no effect, 10 is complete control), Redroot pigweed (pigweed; Rate 250 g/ha, Postemergence): 4
- Redroot pigweed plant response rating (pigweed; [6]): 8
- Ducksalad plant response rating (duck salad; [8]): 0
- Ducksalad plant response rating (duck salad; [9]): 0
- Ducksalad plant response rating (duck salad; [10]): 0
- Ducksalad plant response rating (duck salad; [11]): 0
- Soybean plant response rating (soybean; [1]): 0
- Soybean plant response rating (soybean; [2]): 6
- Plant response rating, Soybean (soybean; [3]): 7
- Soybean plant response rating (soybean; [4]): 4
- Soybean plant response rating (soybean; [5]): 2
- Soybean plant response rating (soybean; [6]): 6
- Rice plant response rating (rice; [8]): 0
- Rice plant response rating (rice; [9]): 0
- Rice plant response rating (rice; [10]): 0
- Rice plant response rating (rice; [11]): 0
- Velvetleaf plant response rating (velvetleaf; [1]): 6
- Velvetleaf plant response rating (velvetleaf; [2]): 8
- Plant response rating, Velvetleaf (velvetleaf; [3]): 10
- Velvetleaf plant response rating (velvetleaf; [4]): 3
- Velvetleaf plant response rating (velvetleaf; [5]): 8
- Velvetleaf plant response rating (velvetleaf; [6]): 7
- Giant foxtail plant response rating (giant foxtail; [1]): 10
- Giant foxtail plant response rating (giant foxtail; [2]): 10
- Plant response rating, Giant foxtail (giant foxtail; [3]): 10
- Giant foxtail plant response rating (giant foxtail; [4]): 7
- Giant foxtail plant response rating (giant foxtail; [5]): 10
- Plant response rating (0 to 10; 0 is no effect, 10 is complete control), Giant foxtail (giant foxtail; Rate 250 g/ha, Postemergence): 8
- Giant foxtail plant response rating (giant foxtail; [6]): 9
- S. Flatsedge plant response rating (smallflower flatsedge; [8]): 0
- S. Flatsedge plant response rating (smallflower flatsedge; [9]): 0
- S. Flatsedge plant response rating (smallflower flatsedge; [10]): 0
- S. Flatsedge plant response rating (smallflower flatsedge; [11]): 0
- Wheat plant response rating (wheat; [1]): 5
- Wheat plant response rating (wheat; [2]): 9
- Plant response rating, Wheat (wheat; [3]): 10
- Wheat plant response rating (wheat; [4]): 4
- Wheat plant response rating (wheat; [5]): 7
- Wheat plant response rating (wheat; [6]): 8
- Cocklebur plant response rating (cocklebur; [1]): 2
- Cocklebur plant response rating (cocklebur; [2]): 2
- Plant response rating, Cocklebur (cocklebur; [3]): 3
- Cocklebur plant response rating (cocklebur; [4]): 5
- Cocklebur plant response rating (cocklebur; [7]): 5
- Plant response rating (0 to 10; 0 is no effect, 10 is complete control), Cocklebur (cocklebur; Rate 250 g/ha, Postemergence): 7
- Cocklebur plant response rating (cocklebur; [6]): 7
